Structures can show the parent of a compound that is named as a salt. Where two headings read alike, the source gives them in different places. Values belong to the compound of their own block, whether it stands above or below them.
Target: T1, protein farnesyltransferase (Rattus norvegicus, UniProt Q02293+Q04631)
T1 construct: The enzyme is purified according to Reiss, Y., et al., Cell, 62: 81-88 (1990), utilizing steps one through three; from tissue; host or cells: rat brain
Assay: Inhibition of farnesyltransferase (scintillation proximity assay, rat brain enzyme, biotin-K Ras B fragment substrate)
Assay type: biochemical
Conditions: for % inhibition of farnesyltransferase at 1 × 10^-6 M / inhibition at 1 µM: 1 × 10^-6 M (Table 2); for % inhibition of farnesyltransferase at 1 × 10^-7 M: 1 × 10^-7 M (Table 3); for inhibition at 1 µM: read-out: % inhibition of farnesyltransferase at 1 × 10^-6 M; for % inhibition of farnesyltransferase at 1 × 10^-5 M: 1 × 10^-5 M (Table 1)
In short: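 Enzyme from rat brain, partly purified (steps one to three), assayed by SPA kit using 0.1 mM final biotin-K Ras B peptide as prenyl acceptor rather than biotin-lamin. Activity given as percent inhibition.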

[1] = read-out: % inhibition at 0.01 μM (**), Table 6, ** = 0.01 μM (footnote), title prints 0.01 mM
[2] = read-out: % inhibition of farnesyltransferase at 1 × 10^-8 M, 1 × 10^-8 M (Table 4)

T1 sequence (Q02293 whole entry, one chain of several): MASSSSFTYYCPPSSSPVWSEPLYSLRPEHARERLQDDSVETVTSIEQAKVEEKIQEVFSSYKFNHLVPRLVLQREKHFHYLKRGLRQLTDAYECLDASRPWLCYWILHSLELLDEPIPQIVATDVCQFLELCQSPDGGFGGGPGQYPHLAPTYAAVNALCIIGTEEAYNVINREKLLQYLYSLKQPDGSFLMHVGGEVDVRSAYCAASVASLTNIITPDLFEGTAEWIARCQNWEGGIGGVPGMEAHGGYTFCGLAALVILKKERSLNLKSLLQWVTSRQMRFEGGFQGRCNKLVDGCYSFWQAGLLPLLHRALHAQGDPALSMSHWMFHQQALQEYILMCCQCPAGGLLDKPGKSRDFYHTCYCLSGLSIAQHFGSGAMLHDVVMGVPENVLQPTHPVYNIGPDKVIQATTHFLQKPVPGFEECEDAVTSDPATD

SMILES: CSCC[C@H](NC(=O)c1ccc(CC(CCC2CCCCC2)S(=O)(=O)c2ccccc2)cc1-c1ccccc1C)C(=O)O (stereo partly shown) [Example 1302, N-[4-(4-Cyclohexyl-2-phenylsulfonylbut-1-yl)-2-(2-methylphenyl)benzoyl]methionine Lithium Salt]
inhibition at 0.01 µM [1]: 93%

SMILES: CSCC[C@H](NC(=O)c1ccc(CN(Cc2ccccc2)c2cccc([N+](=O)[O-])c2)cc1-c1ccccc1C)C(=O)[O-].[Li+] [Example 842]
% inhibition of farnesyltransferase at 1 × 10^-8 M (1 × 10^-8 M (Table 4)): 88%

SMILES: CSCC[C@H](NC(=O)c1ccc(COCc2cnc(-c3cccc(F)c3)s2)cc1-c1ccccc1C)C(=O)[O-].[Li+] [Example 898]
% inhibition of farnesyltransferase at 1 × 10^-8 M (1 × 10^-8 M (Table 4)): 82%

SMILES: Cc1ccccc1-c1cc(CN(C)C(C)(C)CC2CCCCC2)ccc1C(=O)N[C@@H](CCS(C)(=O)=O)C(=O)O [Example 314]
inhibition at 1 µM: 97%

SMILES: CCSC[C@H](CC1CCCCC1)NCc1ccc(C(=O)N[C@@H](CCSC)C(=O)OCOC(=O)C(C)(C)C)c(-c2ccccc2C)c1 [Example 764]
% inhibition of farnesyltransferase at 1 × 10^-6 M: 88%

SMILES: CSCC[C@H](NC(=O)c1ccc(CN(Cc2ccccc2)c2cccc(SC)c2)cc1-c1ccccc1C)C(=O)[O-].[Li+] [Example 851]
% inhibition of farnesyltransferase at 1 × 10^-8 M (1 × 10^-8 M (Table 4)): 82%

SMILES: CSCC[C@H](NC(=O)c1ccc(COCc2cnco2)cc1-c1ccccc1C)C(=O)[O-].[Li+] [Example 891]
% inhibition of farnesyltransferase at 1 × 10^-7 M: 94%

SMILES: CSCC[C@H](NC(=O)c1ccc(NCCO)cc1-c1ccccc1)C(=O)O [Example 502]
% inhibition of farnesyltransferase at 1 × 10^-6 M: 24%

SMILES: CSCC[C@H](NC(=O)c1ccc(COCCc2ccccc2)cc1-c1ccccc1C)C(=O)[O-].[Li+] [Example 587]
% inhibition of farnesyltransferase at 1 × 10^-6 M: 97%

SMILES: CSCC[C@H](NC(=O)c1ccc(COCCCc2ccccc2)cc1-c1ccccc1C)C(=O)[O-].[Li+] [Example 595]
% inhibition of farnesyltransferase at 1 × 10^-6 M: 97%

SMILES: CSCC[C@H](NC(=O)c1ccc(CN[C@H](CCCC(C)C)CC2CCCCC2)cc1-c1ccccc1C)C(=O)O [Example 527]
% inhibition of farnesyltransferase at 1 × 10^-7 M: 97%

SMILES: CSCC[C@H](NC(=O)c1ccc(COCc2ccc(-c3ccccc3F)o2)cc1-c1ccccc1C)C(=O)[O-].[Li+] [Example 437]
% inhibition of farnesyltransferase at 1 × 10^-7 M: 89%

SMILES: Cc1ccccc1-c1cc(CN(C2CC2)C2(Cc3ccccc3)CCCC2)ccc1C(=O)N[C@@H](CCS(C)(=O)=O)C(=O)O [Example 345]
inhibition at 1 µM: 91%

SMILES: Cc1ccccc1-c1cc(CN(C2CC2)C(C)(C)CC2CCCCC2)ccc1C(=O)N[C@@H](CCS(C)(=O)=O)C(=O)O [Example 320]
inhibition at 1 µM: 93%

SMILES: CSCC[C@H](NC(=O)c1ccc(NC(=O)CN)cc1-c1ccccc1)C(=O)O [Example 748]
% inhibition of farnesyltransferase at 1 × 10^-7 M: 56%

SMILES: CSCC[C@H](NC(=O)c1ccc(CSCc2ccccc2)cc1-c1ccccc1C)C(=O)[O-].[Li+] [Example 554]
% inhibition of farnesyltransferase at 1 × 10^-6 M: 96%

SMILES: COC1CC(COCC2CCCCC2)N(Cc2ccc(C(=O)NC(CCSC)C(=O)O)c(-c3ccccc3C)c2)C1 [Example 1123, N-[4-(2(S)-cyclohexylmethoxymethyl-4(R-methoxypyrrolidin-1-ylmethyl)-2-(2-methylphenyl)benzoyl]methionine]
inhibition at 0.1 µM (read-out: % inhibition at 0.1 μM (*), Table 6, * = 0.1 μM (footnote), title prints 0.1 mM): 90%

SMILES: CSCC[C@H](NC(=O)c1ccc(CN2CCC(O)C2)cc1-c1ccccc1)C(=O)O (stereo partly shown) [Example 291]
inhibition at 1 µM: 23%

SMILES: CSCC[C@H](NC(=O)c1ccc(CNc2cc(C(C)(C)C)[nH]n2)cc1-c1ccccc1)C(=O)O [Example 381]
% inhibition of farnesyltransferase at 1 × 10^-5 M: 79%

SMILES: C=C[C@@H](CC1CCCCC1)NCc1ccc(C(=O)N[C@@H](CCSC)C(=O)O)c(-c2ccccc2)c1 [Example 664]
% inhibition of farnesyltransferase at 1 × 10^-5 M: 75%

SMILES: CSCC[C@H](NC(=O)c1ccc(CCc2ccc3ccccc3c2)cc1-c1ccccc1C)C(=O)O [Example 468, lithium salt]
inhibition at 1 µM: 96%

SMILES: CSCC[C@H](NC(=O)c1ccc(-c2cccc(-c3ccccc3)c2)cc1-c1ccccc1C)C(=O)O [Example 787, N-[4-(3-phenylphenyl)-2-(2-methylphenyl)benzoyl]methionine lithium salt]
inhibition at 1 µM: 70%

SMILES: CSCC[C@H](NC(=O)c1ccc(NCC2CNCCN2)cc1-c1ccccc1)C(=O)O (stereo partly shown) [Example 286]
% inhibition of farnesyltransferase at 1 × 10^-6 M: 84%

More lines, now with the values ahead:

% inhibition of farnesyltransferase at 1 × 10^-6 M: 70%
SMILES: CSCC[C@H](NC(=O)c1ccc(COCc2ccccc2)cc1-c1ccccc1)C(=O)O [Example 575]

% inhibition of farnesyltransferase at 1 × 10^-7 M: 94%
SMILES: C=C(C)C1CC=C(COCc2ccc(C(=O)N[C@@H](CCSC)C(=O)O)c(-c3ccccc3C)c2)CC1 (stereo partly shown) [Example 521]

% inhibition of farnesyltransferase at 1 × 10^-6 M: 98%
SMILES: CSCC[C@H](NC(=O)c1ccc(OCCCC2CCCCC2)cc1-c1ccccc1C)C(=O)O [Example 564]

% inhibition of farnesyltransferase at 1 × 10^-7 M: 97%
SMILES: CSCC[C@H](NC(=O)c1ccc(COCc2ccc(-c3ccc(Cl)cc3)o2)cc1-c1ccccc1C)C(=O)O [Example 443]

% inhibition of farnesyltransferase at 1 × 10^-6 M: 84%
SMILES: CSCC[C@H](NC(=O)c1ccc(CN(CC23CC4CC(CC(C4)C2)C3)c2ccccc2)cc1-c1ccccc1C)C(=O)O [Example 510]

% inhibition of farnesyltransferase at 1 × 10^-6 M: 98%
SMILES: CSCC[C@H](NC(=O)c1ccc(SCCc2ccccc2)cc1-c1ccccc1C)C(=O)O [Example 498]

% inhibition of farnesyltransferase at 1 × 10^-6 M: 91%
SMILES: CSCC[C@H](NC(=O)c1ccc(NCC(CO)Cc2ccccc2)cc1-c1ccccc1C)C(=O)O (stereo partly shown) [Example 476]

% inhibition of farnesyltransferase at 1 × 10^-8 M (1 × 10^-8 M (Table 4)): 95%
SMILES: CSCC[C@H](NC(=O)c1ccc(CN(Cc2ccccc2)c2cncnc2)cc1-c1ccccc1C)C(=O)O [Example 836]

% inhibition of farnesyltransferase at 1 × 10^-8 M (1 × 10^-8 M (Table 4)): 84%
SMILES: CSCC[C@H](NC(=O)c1ccc(CN(CCC2CCCCC2)C(=O)c2ccccc2)cc1-c1ccccc1C)C(=O)O [Example 762]

% inhibition of farnesyltransferase at 1 × 10^-8 M (1 × 10^-8 M (Table 4)): 87%
SMILES: CSCC[C@H](NC(=O)c1ccc(CN(Cc2ccccc2)c2ccc(Cl)cc2)cc1-c1ccccc1C)C(=O)O [Example 848]

inhibition at 0.01 µM [1]: 82%
SMILES: CSCC[C@H](NC(=O)c1ccc(Cc2nnnn2CC2CCCCC2)cc1-c1ccccc1C)C(=O)O [Example 1100, N-[4-(1-cyclohexylmethyltetrazol-5-ylmethyl)-2-(2-methylphenyl)benzoyl]methionine]

% inhibition of farnesyltransferase at 1 × 10^-5 M: 64%
SMILES: CSCC[C@H](NC(=O)c1ccc(CNc2ccc(Oc3ccccc3)cc2)cc1-c1ccccc1)C(=O)O [Example 701]

% inhibition of farnesyltransferase at 1 × 10^-5 M: 58%
SMILES: CSCC[C@H](NC(=O)c1ccc(CNc2cccc(CO)c2)cc1-c1ccccc1)C(=O)O [Example 680]

% inhibition of farnesyltransferase at 1 × 10^-8 M (1 × 10^-8 M (Table 4)): 74%
SMILES: CCCCS(=O)(=O)N(CCCc1ccccc1)Cc1ccc(C(=O)N[C@@H](CCSC)C(=O)O)c(-c2ccccc2C)c1 [Example 927]

% inhibition of farnesyltransferase at 1 × 10^-6 M: 32%
SMILES: CSCCC(NC(=O)c1ccc(CNC(CO)c2ccccc2)cc1-c1ccccc1)C(=O)O (stereo not shown) [Example 657]

inhibition at 1 µM: 98%
SMILES: CSCC[C@H](NC(=O)c1ccc(CN(C2CC2)C2(CC3CCCCC3)CC2)cc1-c1ccccc1C)C(=O)O [Example 324]

inhibition at 0.01 µM [2]: 86%
SMILES: CSCC[C@H](NC(=O)c1ccc(CON=C(Cc2ccccc2)Cc2ccccc2)cc1-c1ccccc1C)C(=O)O [Example 888, N-[4-N-(1,3-Diphenylpropan-2-yl)iminooxymethyl-2-(2-methylphenyl)benzoyl]-methionine lithium salt]

% inhibition of farnesyltransferase at 1 × 10^-7 M: 51%
SMILES: CSCC[C@H](NC(=O)c1ccc(CSc2nc(C)cc(C)n2)cc1-c1ccccc1C)C(=O)O [Example 743]

% inhibition of farnesyltransferase at 1 × 10^-8 M (1 × 10^-8 M (Table 4)): 90%
SMILES: CSCC[C@H](NC(=O)c1ccc(CN(CCc2ccccc2)c2cncnc2)cc1-c1ccccc1C)C(=O)O [Example 518]

inhibition at 1 µM: 93%
SMILES: CSCC[C@H](NC(=O)c1ccc(/C=C/c2cccc3ccccc23)cc1-c1ccccc1C)C(=O)O [Example 466, N-[4-(2-naphth-1-ylethenyl)-2-(2-methylphenyl)benzoyl]methionine lithium salt]

% inhibition of farnesyltransferase at 1 × 10^-5 M: 76%
SMILES: CSCC[C@H](NC(=O)c1ccc(CNc2cc(C)ns2)cc1-c1ccccc1)C(=O)O [Example 373]

inhibition at 1 µM: 89%
SMILES: CSCC[C@H](NC(=O)c1ccc(/C=C/c2ccc(Oc3ccccc3)nn2)cc1-c1ccccc1C)C(=O)O [Example 810, N-[4-(2-(3-phenoxypyridazin-6-yl)ethen-1-yl)-2-(2-methylphenyl)benzoyl]methionine lithium salt]

% inhibition of farnesyltransferase at 1 × 10^-8 M (1 × 10^-8 M (Table 4)): 84%
SMILES: CCCCN(CCc1ccccc1)Cc1ccc(C(=O)N[C@@H](CCSC)C(=O)O)c(-c2ccccc2C)c1 [Example 928]

inhibition at 0.01 µM [2]: 93%
SMILES: CSCC[C@H](NC(=O)c1ccc(CN2CCC[C@H]2COCC2CCCCC2)cc1-c1ccccc1C)C(=O)O [Example 992, N-[4-(2-cyclohexylmethoxymethylpyrrolidin-1-ylmethyl)-2-(2-methylphenyl)benzoyl]methionine]

% inhibition of farnesyltransferase at 1 × 10^-6 M: 92%
SMILES: CSCC[C@H](NC(=O)c1ccc(OCCC23CC4CC(CC(C4)C2)C3)cc1-c1ccccc1C)C(=O)O [Example 553]

% inhibition of farnesyltransferase at 1 × 10^-7 M: 83%
SMILES: CSCC[C@H](NC(=O)c1ccc(CSc2ccccc2C(C)C)cc1-c1ccccc1C)C(=O)O [Example 739]

inhibition at 0.01 µM [1]: 91%
SMILES: CSCC[C@H](NC(=O)c1ccc(CN2CCC[C@H]2COC2CCCCC2)cc1-c1ccccc1C)C(=O)O [Example 1116, N-[4-(2(S)-cyclohexyloxymethylpyrrolidin-1-ylmethyl)-2-(2-methylphenyl)benzoyl]methionine]

% inhibition of farnesyltransferase at 1 × 10^-6 M: 88%
SMILES: Cc1ccccc1-c1cc(COCc2ccccc2)ccc1C(=O)N[C@@H](CCS(C)(=O)=O)C(=O)O [Example 576]

% inhibition of farnesyltransferase at 1 × 10^-6 M: 97%
SMILES: CSCC[C@H](NC(=O)c1ccc(CN[C@H](C)CC2CCCCC2)cc1-c1ccccc1C)C(=O)O [Example 613]
